Test results: PubChem BioAssay (NCI)
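Protocol summary: plate cells (96-well), add compound at 5 concentrations, incubate 48 h, interpolate endpoints linearly. TGI: concentration producing complete growth inhibition.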

What was measured:
Test in all cases: inhibition of tumour cell growth, NCI panel, 48 h
786-0 renal = tested on: 786-0 renal
A549 NSCLC = tested on: A549 NSCLC
ACHN renal = tested on: ACHN renal
CCRF-CEM leukemia = tested on: CCRF-CEM leukemia
COLO 205 colon = tested on: COLO 205 colon
DLD-1 colon = tested on: DLD-1 colon
DMS 273 small cell lung = tested on: DMS 273 small cell lung
EKVX NSCLC = tested on: EKVX NSCLC
HCC-2998 colon = tested on: HCC-2998 colon
HCT-116 colon = tested on: HCT-116 colon
HCT-15 colon = tested on: HCT-15 colon
HL-60(TB) leukemia = tested on: HL-60(TB) leukemia
HOP-18 NSCLC = tested on: HOP-18 NSCLC
HOP-62 NSCLC = tested on: HOP-62 NSCLC
HT29 colon = tested on: HT29 colon
K-562 leukemia = tested on: K-562 leukemia
KM12 colon = tested on: KM12 colon
LOX IMVI melanoma = tested on: LOX IMVI melanoma
M14 melanoma = tested on: M14 melanoma
M19-MEL melanoma = tested on: M19-MEL melanoma
MALME-3M melanoma = tested on: MALME-3M melanoma
MOLT-4 leukemia = tested on: MOLT-4 leukemia
NCI-H226 lung = tested on: NCI-H226 lung
NCI-H23 lung = tested on: NCI-H23 lung
NCI-H460 lung = tested on: NCI-H460 lung
NCI-H522 lung = tested on: NCI-H522 lung
OVCAR-3 ovarian = tested on: OVCAR-3 ovarian
OVCAR-4 ovarian = tested on: OVCAR-4 ovarian
OVCAR-5 ovarian = tested on: OVCAR-5 ovarian
OVCAR-8 ovarian = tested on: OVCAR-8 ovarian
RPMI-8226 leukemia = tested on: RPMI-8226 leukemia
SF-268 CNS = tested on: SF-268 CNS
SF-295 CNS = tested on: SF-295 CNS
SF-539 CNS = tested on: SF-539 CNS
SK-MEL-2 melanoma = tested on: SK-MEL-2 melanoma
SK-MEL-28 melanoma = tested on: SK-MEL-28 melanoma
SK-MEL-5 melanoma = tested on: SK-MEL-5 melanoma
SN12C renal = tested on: SN12C renal
SNB-19 CNS = tested on: SNB-19 CNS
SNB-75 CNS = tested on: SNB-75 CNS
SNB-78 CNS = tested on: SNB-78 CNS
SR leukemia = tested on: SR leukemia
SW-620 colon = tested on: SW-620 colon
TK-10 renal = tested on: TK-10 renal
UACC-257 melanoma = tested on: UACC-257 melanoma
UO-31 renal = tested on: UO-31 renal
XF 498 CNS = tested on: XF 498 CNS

## c1cncc(CSc2nc3ccccc3nc2-c2cccs2)c1
786-0 renal
  TGI: > 100 µM
A549 NSCLC
  TGI: > 100 µM
ACHN renal
  TGI: > 100 µM
CCRF-CEM leukemia
  TGI: > 100 µM
COLO 205 colon
  TGI: > 100 µM
DLD-1 colon
  TGI: > 100 µM
DMS 273 small cell lung
  TGI: > 100 µM
EKVX NSCLC
  TGI: > 100 µM
HCC-2998 colon
  TGI: > 100 µM
HCT-116 colon
  TGI: > 100 µM
HCT-15 colon
  TGI: > 100 µM
HL-60(TB) leukemia
  TGI: 47.9 µM
HOP-18 NSCLC
  TGI: > 100 µM
HOP-62 NSCLC
  TGI: > 100 µM
HT29 colon
  TGI: > 100 µM
K-562 leukemia
  TGI: > 100 µM
KM12 colon
  TGI: > 100 µM
LOX IMVI melanoma
  TGI: > 100 µM
M14 melanoma
  TGI: > 100 µM
M19-MEL melanoma
  TGI: > 100 µM
MALME-3M melanoma
  TGI: > 100 µM
MOLT-4 leukemia
  TGI: 98.7 µM
NCI-H226 lung
  TGI: > 100 µM
NCI-H23 lung
  TGI: > 100 µM
NCI-H460 lung
  TGI: > 100 µM
NCI-H522 lung
  TGI: > 100 µM
OVCAR-3 ovarian
  TGI: 83.3 µM
OVCAR-4 ovarian
  TGI: > 100 µM
OVCAR-5 ovarian
  TGI: > 100 µM
OVCAR-8 ovarian
  TGI: > 100 µM
RPMI-8226 leukemia
  TGI: > 100 µM
SF-268 CNS
  TGI: > 100 µM
SF-295 CNS
  TGI: > 100 µM
SF-539 CNS
  TGI: > 100 µM
SK-MEL-2 melanoma
  TGI: > 100 µM
SK-MEL-28 melanoma
  TGI: > 100 µM
SK-MEL-5 melanoma
  TGI: > 100 µM
SN12C renal
  TGI: > 100 µM
SNB-19 CNS
  TGI: > 100 µM
SNB-75 CNS
  TGI: > 100 µM
SNB-78 CNS
  TGI: > 100 µM
SR leukemia
  TGI: > 100 µM
SW-620 colon
  TGI: > 100 µM
TK-10 renal
  TGI: > 100 µM
UACC-257 melanoma
  TGI: > 100 µM
UO-31 renal
  TGI: > 100 µM
XF 498 CNS
  TGI: > 100 µM
